In brackets after ≈: the same amount, converted by molar mass.
Assays:
[1] = system: carbapenem sensitive Pseudomonas aeruginosa; experiment: MIC by broth micro-dilution (CLSI), carbapenem sensitive P. aeruginosa; format: cell-based; conditions: Pseudomonas aeruginosa, ATCC27853, Meropenem susceptible P. aeruginosa ATCC27853; read-out: MIC
[2] = system: carbapenem sensitive Escherichia coli; experiment: MIC by broth micro-dilution (CLSI), carbapenem sensitive E. coli; format: cell-based; conditions: Escherichia coli, ATCC25922, ESBL −ve E. coli ATCC25922; read-out: MIC
[3] = system: methicillin-sensitive Staphylococcus aureus; experiment: MIC by broth micro-dilution (CLSI), methicillin-sensitive S. aureus; format: cell-based; conditions: Staphylococcus aureus, ATCC 29213 / MSSA, MSSA S. aureus ATCC29213; read-out: MIC
[4] = system: carbapenemase producing K. pneumoniae; experiment: MIC by broth micro-dilution (CLSI), carbapenemase producing K. pneumoniae; format: cell-based, Klebsiella pneumoniae; conditions: Klebsiella pneumoniae, ATCCBAA1705, KPC-2 K. pneumoniae ATCC BAA-1705; read-out: MIC

Compound | MIC [1] [µg/mL] | MIC [2] [µg/mL] | MIC [3] [µg/mL] | MIC [4] [µg/mL]
C[C@@H](NC(=O)Cn1cnnn1)[C@H]1C(=O)N2C(C(=O)O)=C(S[C@@H]3CN[C@H](C(=O)N4CCC(N)CC4)C3)[C@H](C)[C@H]12 [Example 340, (4R,5S,6R)-6-((R) - 1-(2-(1H-tetrazol-1-yl)acetamido)ethyl)-3-((3S,5S)-5-(4-aminopiperidine-1-carbonyl)pyrrolidin-3-ylthio)-4-methyl-7-oxo-1-azabicyclo[3.2.0]hept-2-ene-2-carboxylic acid] | 4 (≈ 7.3 µM) | 1 (≈ 1.83 µM) | 8 (≈ 14.6 µM) | 4 (≈ 7.3 µM)
C[C@@H](NC(=O)Cn1cnnn1)[C@H]1C(=O)N2C(C(=O)O)=C(S[C@@H]3CN[C@H](C(=O)N4CCC[C@H](N)C4)C3)[C@H](C)[C@H]12 [Example 341, (4R,5S,6R)-6-((R) - 1-(2-(1H-tetrazol-1-yl)acetamido)ethyl)-3-((3S,5S)-5-((S)-3-aminopiperidin-1-carbonyl)pyrrolidin-3-ylthio)-4-methyl-7-oxo-1-azabicycio[3.2.0]hept-2-ene-2-carboxylic acid] | 8 (≈ 14.6 µM) | 1 (≈ 1.83 µM) | 4 (≈ 7.3 µM) | 4 (≈ 7.3 µM)
C[C@@H](NC(=O)Cn1cnnn1)[C@H]1C(=O)N2C(C(=O)O)=C(S[C@@H]3CN[C@H](C(=O)N4CCC(N5CC(N)C5)CC4)C3)[C@H](C)[C@H]12 [Example 342, (4R,5S,6R)-6-((R) - 1-(2-(1H-tetrazol-1-yl)acetamido)ethyl)-3-((3S,5S)-5-(4-(3-aminoazetidin-1-yl)piperidine-1-carbonyl)pyrrolidin-3-ylthino)-4-methyl-7-oxo-1-azabicyclo[3.2.0]hept-2-ene-2-carboxylic acid] | 8 (≈ 13.3 µM) | 2 (≈ 3.32 µM) | 16 (≈ 26.5 µM) | 8 (≈ 13.3 µM)
C[C@@H](NC(=O)Cn1cnnn1)[C@H]1C(=O)N2C(C(=O)O)=C(S[C@@H]3CN[C@H](C(=O)N4CCC(N5CC(CN)C5)CC4)C3)[C@H](C)[C@H]12 [Example 343, (4R,5S,6R)-6-((R) - 1-(2-(1H-tetrazol-1-yl)acetamido)ethyl)-3-((3S,5S)-5-(4-(3-(aminomethyl)azetidin-1-yl)piperidine-1-carbonyl)pyrrolidin-3-ylthio)-4-methyl-7-oxo-1-azabicycio[3.2.0]hept-2-ene-2-carboxylic acid] | 8 (≈ 13 µM) | 2 (≈ 3.24 µM) | 16 (≈ 25.9 µM) | 8 (≈ 13 µM)
C[C@@H](NC(=O)Cn1cnnn1)[C@H]1C(=O)N2C(C(=O)O)=C(S[C@@H]3CN[C@H](C(=O)N4CC(F)(CN)C4)C3)[C@H](C)[C@H]12 [Example 344, (4R,5S,6R)-6-((R) - 1-(2-(1H-tetrazol-1-yl)acetamido)ethyl)-3-((3S,5S)-5-(3-(aminomethyl)-3-fluoroazetidine-1-carbonyl)pyrrolidin-3-ylthio)-4-methyl-7-oxo-1-azabicyclo[3.2.0]hept-2-ene-2-carboxylic acid] | 16 (≈ 29 µM) | 1 (≈ 1.81 µM) | 16 (≈ 29 µM) | 16 (≈ 29 µM)
C[C@@H](NC(=O)Cn1cnnn1)[C@H]1C(=O)N2C(C(=O)O)=C(S[C@@H]3CN[C@H](C(=O)N4C[C@H]5CC[C@@H](C4)[C@H]5N)C3)[C@H](C)[C@H]12 [Example 345, (4R,5S,6R)-6-((R) - 1-(2-(1H-tetrazol-1-yl)acetamido)ethyl)-3-((3S,5S)-5-((1R,5S,8S)-8-amino-3-azabicyclo[3.2.0]octane-3-carbonyl)pyrrolidin-3-ylthio)-4-methyl-7-oxo-1-azabicyclo[3.2.0]hept-2-ene-2-carboxylic acid] | 128 (≈ 223 µM) | 8 (≈ 13.9 µM) | 64 (≈ 112 µM) | 32 (≈ 55.8 µM)
C[C@@H](NC(=O)Cn1cnnn1)[C@H]1C(=O)N2C(C(=O)O)=C(S[C@@H]3CN[C@H](C(=O)N4CCC(F)(CN)CC4)C3)[C@H](C)[C@H]12 [Example 346, (4R,5S,6R)-6-((R) - 1-(2-(1H-tetrazol-1-yl)acetamido)ethyl)-3-((3S,5S)-5-(4-(aminomethyl)-4-fluoropiperidine-1-carbonyl)pyrrolidin-3-ylthio)-4-methyl-7-oxo-1-azabicyclo[3.2.0]hept-2-ene-2-carboxylic acid] | 16 (≈ 27.6 µM) | 1 (≈ 1.73 µM) | 16 (≈ 27.6 µM) | 8 (≈ 13.8 µM)
C[C@@H](NC(=O)Cn1nnnc1C(F)(F)F)[C@H]1C(=O)N2C(C(=O)O)=C(S[C@@H]3CN[C@H](C(=O)N4CC[C@@H](N)C4)C3)[C@H](C)[C@H]12 [Example 347, (4R,5S,6R)-3-((3S,5S)-5-((R)-3-aminopyrrolidine-1-carbonyl)pyrrolidin-3-ylthio)-4-methyl-7-oxo-6-((R)-1-(2-(5-(trifluoromethyl)-1H-tetrazol-1-yl)acetamido)ethyl)-1-azabicyclo[3.2.0]hept-2-ene-2-carboxylic acid] | > 128 | 0.5 (≈ 0.831 µM) | 4 (≈ 6.65 µM) | 16 (≈ 26.6 µM)
C[C@@H](NC(=O)Cn1nnnc1C(F)(F)F)[C@H]1C(=O)N2C(C(=O)O)=C(S[C@@H]3CN[C@H](C(=O)N(C)C)C3)[C@H](C)[C@H]12 [Example 348, (4R,5S,6R)-3-((3S,5S)-5-(dimethylcarbamoyl)pyrrolidin-3-ylthio)-4-methyl-7-oxo-6-((R)-1-(2-(5-(trifluoromethyl)-1H-tetrazol-1-yl)acetamido)ethyl)-1-azabicyclo[3.2.0]hept-2-ene-2-carboxylic acid] | > 128 | 1 (≈ 1.78 µM) | 8 (≈ 14.3 µM) | 16 (≈ 28.5 µM)
C[C@@H](NC(=O)Cn1nnnc1C(F)F)[C@H]1C(=O)N2C(C(=O)O)=C(S[C@@H]3CN[C@H](C(=O)N4CC[C@@H](N)C4)C3)[C@H](C)[C@H]12 [Example 349, (4R,5S,6R)-3-((3S,5S)-5-((R)-3-aminopyrrolidine-1-carbonyl)pyrrolidin-3-ylthio)-6-((R)-1-(2-(5-(difluoromethyl)-1H-tetrazol-1-yl)acetamido)ethyl)-4-methyl-7-oxo-1-azabicyclo[3.2.0]hept-2-ene-2-carboxylic acid] | 32 (≈ 54.8 µM) | 0.25 (≈ 0.428 µM) | 4 (≈ 6.85 µM) | 4 (≈ 6.85 µM)
C[C@@H](NC(=O)Cn1nnnc1C(F)F)[C@H]1C(=O)N2C(C(=O)O)=C(S[C@@H]3CN[C@H](C(=O)N(C)C)C3)[C@H](C)[C@H]12 [Example 350, (4R,5S,6R)-6-((R)-1-(2-(5-(difluoromethyl)-1H-tetrazol-1-yl)acetamido)ethyl)-3-((3S,5S)-5-(dimethylcarbamoyl)pyrrolidin-3-ylthio)-4-methyl-7-oxo-1-azabicyclo[3.2.0]hept-2-ene-2-carboxylic acid] | 128 (≈ 236 µM) | 0.25 (≈ 0.461 µM) | 2 (≈ 3.69 µM) | 1 (≈ 1.84 µM)
C[C@@H](NC(=O)Cn1cnnn1)[C@H]1C(=O)N2C(C(=O)O)=C(S[C@@H]3CN[C@H](C(=O)N4CCC5(CC4)CC(F)(F)CN5)C3)[C@H](C)[C@H]12 [Example 351, (4R,5S,6R)-6-((R)-1-(2-(1H-tetrazol-1-yl)acetamido)ethyl)-3-((3S,5S)-5-(3,3-difluoro-1,8-diazaspiro[4.5]decane-8-carbonyl)pyrrolidin-3-ylthio)-4-methyl-7-oxo-1-azabicyclo[3.2.0]hept-2-ene-2-carboxylic acid] | > 128 | 1 (≈ 1.6 µM) | 16 (≈ 25.7 µM) | 4 (≈ 6.41 µM)
C[C@@H](NC(=O)Cn1cnnn1)[C@H]1C(=O)N2C(C(=O)O)=C(S[C@@H]3CN[C@H](C(=O)N4CCC5(CCCN5)CC4)C3)[C@H](C)[C@H]12 [Example 352, (4R,5S,6R)-3-((3S,5S)-5-(1,8-diazaspiro[4.5]decane-8-carbonyl)pyrrolidin-3-ylthio)-6-((R)-1-(2-(1H-tetrazol-1-yl)acetamido)ethyl)-4-methyl-7-oxo-1-azabicyclo[3.2.0]hept-2-ene-2-carboxylic acid] | 2 (≈ 3.4 µM) | 0.25 (≈ 0.425 µM) | 4 (≈ 6.81 µM) | 2 (≈ 3.4 µM)
C[C@@H](NC(=O)Cn1cnnn1)[C@H]1C(=O)N2C(C(=O)O)=C(S[C@@H]3CN[C@H](C(=O)N4C[C@@H]5NCCO[C@@H]5C4)C3)[C@H](C)[C@H]12 [Example 353, (4R,5S,6R)-6-((R)-1-(2-(1H-tetrazol-1-yl)acetamido)ethyl)-4-methyl-3-((3S,5S)-5-((4aS,7aR)-octahydropyrrolo[3,4-b][1,4]oxazine-6-carbonyl)pyrrolidin-3-ylthio)-7-oxo-1-azabicyclo[3.2.0]hept-2-ene-2-carboxylic acid] | 16 (≈ 27.8 µM) | 0.25 (≈ 0.434 µM) | 16 (≈ 27.8 µM) | 2 (≈ 3.47 µM)
C[C@@H](NC(=O)Cn1cnnn1)[C@H]1C(=O)N2C(C(=O)O)=C(S[C@@H]3CNC(CNC(=O)[C@H]4CSCN4)C3)[C@H](C)[C@H]12 (some centres unmarked) [Example 354] | 32 (≈ 56.6 µM) | 0.125 (≈ 0.221 µM) | 2 (≈ 3.54 µM) | 1 (≈ 1.77 µM)
C[C@@H](NC(=O)Cn1nnnc1C(C)(C)C)[C@H]1C(=O)N2C(C(=O)O)=C(S[C@@H]3CN[C@H](C(=O)N4CC[C@@H](N)C4)C3)[C@H](C)[C@H]12 [Example 355, (4R,5S,6R)-3-((3S,5S)-5-((R)-3-aminopyrrolidine-1-carbonyl)pyrrolidin-3-ylthio)-6-((R)-1-(2-(5-tert-hutyl-1H-tetrazol-1-yl)acetamido)ethyl)-4-methyl-7-oxo-1-azabicyclo[3.2.0]hept-2-ene-2-carboxylic acid] | 128 (≈ 217 µM) | 1 (≈ 1.7 µM) | 4 (≈ 6.78 µM) | 16 (≈ 27.1 µM)
C[C@@H](NC(=O)Cn1nnnc1C(C)(C)C)[C@H]1C(=O)N2C(C(=O)O)=C(S[C@@H]3CN[C@H](C(=O)N(C)C)C3)[C@H](C)[C@H]12 [Example 356, (4R,5S,6R)-6-((R)-1-(2-(5-tert-butyl-1H-tetrazol-1-yl)acetamido)ethyl)-3-((3S,5S)-5-(dimethylcarbamoyl)pyrrolidin-3-ylthio)-4-methyl-7-oxo-1-azabicyclo[3.2.0]hept-2-ene-2-carboxylic acid] | > 128 | 1 (≈ 1.82 µM) | 4 (≈ 7.29 µM) | 16 (≈ 29.2 µM)

— patent publication US11180504B2 (ORCHID PHARMA LTD., priority 2016, dated 2021)
